# Experimental data from patent publication US11207325B2, “Triazolopyrimidine compounds and uses thereof” (Novartis AG, priority 2014, dated 2021).
# System: H3K27 methylation in G401 cell
# Assay: ELISA (H3K27 methylation) assay
# Format: cell-based
# Settings: Homo sapiens, G-401; ELISA Qualified assay (H3K27 methylation); read-out: (c) IC50 (μM), ELISA Qualified
# Text: ELISA (H3K27 Methylation) Assay
row,SMILES,IC50 [µM]
1,"CN(C)C(=O)CCc1ccc(-c2cnc(NCc3cccc4c3CCO4)n3cnnc23)cn1 [Example 135, 3-(5-(5-(((2,3-dihydrobenzofuran-4-yl)methyl)amino)-[1,2,4]triazolo[4,3-c]pyrimidin-8-yl)pyridin-2-yl)-N,N-dimethylpropanamide]",0.321
2,"Cc1c(-c2cnc(NCc3c(F)ccc4c3CCO4)n3cnnc23)ccc[n+]1[O-] [Example 204, 3-(5-(((5-fluoro-2,3-dihydrobenzofuran-4-yl)methyl)amino)-[1,2,4]triazolo[4,3-c]pyrimidin-8-yl)-2-methylpyridine 1-oxide]",0.0103
3,"O=C(c1ccc(-c2cnc(NCc3cccc4c3CCO4)n3cnnc23)cn1)N1CCCC1 [Example 80, (5-(5-(((2,3-dihydrobenzofuran-4-yl)methyl)amino)-[1,2,4]triazolo[4,3-c]pyrimidin-8-yl)pyridin-2-yl)(pyrrolidin-1-yl)methanone]",0.132
4,"Cc1cc(-c2cnc(NCc3cccc4c3CCO4)n3cnnc23)cnc1S(C)(=O)=O [Example 70, N-((2,3-dihydrobenzofuran-4-yl)methyl)-8-(5-methyl-6-(methylsulfonyl)pyridin-3-yl)-[1,2,4]triazolo[4,3-c]pyrimidin-5-amine]",0.0839
5,"Nc1ccncc1-c1cnc(NCc2cccc3c2CCO3)n2cnnc12 [Example 76, 8-(4-aminopyridin-3-yl)-N-((2,3-dihydrobenzofuran-4-yl)methyl)-[1,2,4]triazolo[4,3-c]pyrimidin-5-amine]",0.32
6,"COc1ncc(-c2cnc(NCc3c(F)ccc4c3CCO4)n3cnnc23)cn1 [Example 174, N-((5-fluoro-2,3-dihydrobenzofuran-4-yl)methyl)-8-(2-methoxypyrimidin-5-yl)-[1,2,4]triazolo[4,3-c]pyrimidin-5-amine]",0.0042
7,"CN(C)S(=O)(=O)c1ccc(-c2cnc(NCc3cccc4c3CCO4)n3cnnc23)cc1 [Example 15, 4-(5-(((2,3-dihydrobenzofuran-4-yl)methyl)amino)-[1,2,4]triazolo[4,3-c]pyrimidin-8-yl)-N,N-dimethylbenzenesulfonamide]",0.0198
8,"FC(F)c1ccc(-c2cnc(NCc3cccc4c3CCO4)n3cnnc23)cn1 [Example 154, 8-(6-(difluoromethyl)pyridin-3-yl)-N-((2,3-dihydrobenzofuran-4-yl)methyl)-[1,2,4]triazolo[4,3-c]pyrimidin-5-amine]",0.0968
9,"Cc1nn(C2CC2)c(C)c1-c1cnc(NCc2c(F)ccc3c2CCO3)n2cnnc12 [Example 179, 8-(1-cyclopropyl-3,5-dimethyl-1H-pyrazol-4-yl)-N-((5-fluoro-2,3-dihydrobenzofuran-4-yl)methyl)-[1,2,4]triazolo[4,3-c]pyrimidin-5-amine]",0.0091
10,"Fc1ccc2c(c1CNc1ncc(-c3cccnc3F)c3nncn13)CCO2 [Example 115, N-((5-fluoro-2,3-dihydrobenzofuran-4-yl)methyl)-8-(2-fluoropyridin-3-yl)-[1,2,4]triazolo[4,3-c]pyrimidin-5-amine]",0.0243
11,"Cc1nn(CCO)c(C)c1-c1cnc(NCc2cccc3c2CCO3)n2cnnc12 [Example 67, 2-(4-(5-(((2,3-dihydrobenzofuran-4-yl)methyl)amino)-[1,2,4]triazolo[4,3-c]pyrimidin-8-yl)-3,5-dimethyl-1H-pyrazol-1-yl)ethanol]",0.521
12,"Clc1ccccc1-c1cnc(NCc2cccc3c2CCO3)n2cnnc12 [Example 32, 8-(2-chlorophenyl)-N-((2,3-dihydrobenzofuran-4-yl)methyl)-[1,2,4]triazolo[4,3-c]pyrimidin-5-amine]",0.115
13,"Cc1cc(-c2cnc(NCc3cccc4c3CCO4)n3cnnc23)ccc1C(=O)N(C)C [Example 49, 4-(5-(((2,3-dihydrobenzofuran-4-yl)methyl)amino)-[1,2,4]triazolo[4,3-c]pyrimidin-8-yl)-N,N,2-trimethylbenzamide]",0.366
14,"CC1(C)COC(c2ccc(-c3cnc(NCc4cccc5c4CCO5)n4cnnc34)cn2)=N1 [Example 101, N-((2,3-dihydrobenzofuran-4-yl)methyl)-8-(6-(4,4-dimethyl-4,5-dihydrooxazol-2-yl)pyridin-3-yl)-[1,2,4]triazolo[4,3-c]pyrimidin-5-amine]",0.761
15,"CN(C)C(=O)c1ccc(-c2cnc(NCc3cccc4c3CCO4)n3cnnc23)cn1 [Example 95, 5-(5-(((2,3-dihydrobenzofuran-4-yl)methyl)amino)-[1,2,4]triazolo[4,3-c]pyrimidin-8-yl)-N,N-dimethylpicolinamide]",0.158
16,"COc1ncccc1-c1cnc(NCc2c(F)ccc3c2CCO3)n2cnnc12 [Example 141, N-((5-fluoro-2,3-dihydrobenzofuran-4-yl)methyl)-8-(2-methoxypyridin-3-yl)-[1,2,4]triazolo[4,3-c]pyrimidin-5-amine]",0.0351
17,"Cc1ccc(-c2cnc(NCc3c(F)ccc4c3CCO4)n3cnnc23)c(C)n1 [Example 167, 8-(2,6-dimethylpyridin-3-yl)-N-((5-fluoro-2,3-dihydrobenzofuran-4-yl)methyl)-[1,2,4]triazolo[4,3-c]pyrimidin-5-amine]",0.0393
18,"Fc1ccc2c(c1CNc1ncc(-n3cccn3)c3nncn13)CCO2 [Example 237, N-((5-fluoro-2,3-dihydrobenzofuran-4-yl)methyl)-8-(1H-pyrazol-1-yl)-[1,2,4]triazolo[4,3-c]pyrimidin-5-amine]",0.0101
19,"N#Cc1ccccc1-c1cnc(NCc2c(F)ccc3c2CCO3)n2cnnc12 [Example 121, 2-(5-(((5-fluoro-2,3-dihydrobenzofuran-4-yl)methyl)amino)-[1,2,4]triazolo[4,3-c]pyrimidin-8-yl)-benzonitrile]",0.0142
20,"CS(=O)(=O)c1cccc(-c2cnc(NCc3cccc4c3CCO4)n3cnnc23)c1 [Example 27, N-((2,3-dihydrobenzofuran-4-yl)methyl)-8-(3-(methylsulfonyl)phenyl)-[1,2,4]triazolo[4,3-c]pyrimidin-5-amine]",0.365

# Second part, the compound after the results:
row,IC50 [µM],SMILES
1,0.0426,"Cc1noc(C)c1-c1cnc(NCc2c(F)ccc3c2CCO3)n2cnnc12 [Example 71, 8-(3,5-dimethylisoxazol-4-yl)-N-((5-fluoro-2,3-dihydrobenzofuran-4-yl)methyl)-[1,2,4]triazolo[4,3-c]pyrimidin-5-amine]"
2,0.0103,"Fc1ccncc1-c1cnc(NCc2c(F)ccc3c2CCO3)n2cnnc12 [Example 47, N-((5-fluoro-2,3-dihydrobenzofuran-4-yl)methyl)-8-(4-fluoropyridin-3-yl)-[1,2,4]-triazolo[4,3-c]pyrimidin-5-amine]"
3,1.95,"OCCn1cc(-c2cnc(NCc3cccc4c3CCO4)n3cnnc23)cn1 [Example 34, 2-(4-(5-(((2,3-dihydrobenzofuran-4-yl)methyl)amino)-[1,2,4]trizaolo[4,3-c]pyrimidin-8-yl)-1H-pyrazol-1-yl)ethanol]"
4,0.0604,"c1cncc(-c2cnc(NCc3cccc4c3CCO4)n3cnnc23)c1 [Example 16, N-((2,3-dihydrobenzofuran-4-yl)methyl)-8-(pyridin-3-yl)-[1,2,4]triazolo[4,3-c]pyrimidin-5-amine]"
5,0.0114,"Cc1cc(C#N)ccc1-c1cnc(NCc2c(F)ccc3c2CCO3)n2cnnc12 [Example 178, 4-(5-(((5-fluoro-2,3-dihydrobenzofuran-4-yl)methyl)amino)-[1,2,4]triazolo[4,3-c]pyrimidin-8-yl)-3-methylbenzonitrile]"
6,0.0683,"CC(C)n1nccc1-c1cnc(NCc2c(F)ccc3c2CCO3)n2cnnc12 [Example 144, N-((5-fluoro-2,3-dihydrobenzofuran-4-yl)methyl)-8-(1-isopropyl-1H-pyrazol-5-yl)-[1,2,4]triazolo[4,3-c]pyrimidin-5-amine]"
7,0.675,"CC1(C)COC(c2cncc(-c3cnc(NCc4cccc5c4CCO5)n4cnnc34)c2)=N1 [Example 90, N-((2,3-dihydrobenzofuran-4-yl)methyl)-8-(5-(4,4-dimethyl-4,5-dihydrooxazol-2-yl)pyridin-3-yl)-[1,2,4]triazolo[4,3-c]pyrimidin-5-amine]"
8,0.656,"OC1CN(c2ccc(-c3cnc(NCc4cccc5c4CCO5)n4cnnc34)cn2)C1 [Example 126, 1-(5-(5-(((2,3-dihydrobenzofuran-4-yl)methyl)amino)-[1,2,4]triazolo[4,3-c]pyrimidin-8-yl)pyridin-2-yl)azetidin-3-ol]"
9,0.467,"CN1CCC(S(=O)(=O)c2ccc(-c3cnc(NCc4cccc5occc45)n4cnnc34)cc2)CC1 [Example 220, N-(benzofuran-4-ylmethyl)-8-(4-((1-methylpiperidin-4-yl)sulfonyl)phenyl)-[1,2,4]triazolo[4,3-c]pyrimidin-5-amine]"
10,0.0076,"Cc1cn(-c2cnc(NCc3c(F)ccc4c3CCO4)n3cnnc23)c(C)n1 [Example 236, 8-(2,4-dimethyl-1H-imidazol-1-yl)-N-((5-fluoro-2,3-dihydrobenzofuran-4-yl)methyl)-[1,2,4]triazolo[4,3-c]pyrimidin-5-amine]"
11,0.0758,"COCCc1ccc(-c2cnc(NCc3cccc4c3CCO4)n3cnnc23)cn1 [Example 86, N-((2,3-dihydrobenzofuran-4-yl)methyl)-8-(6-(2-methoxyethyl)pyridin-3-yl)-[1,2,4]triazolo[4,3-c]pyrimidin-5-amine]"
12,0.165,"O=CN1CCN(c2ccc(-c3cnc(NCc4cccc5c4CCO5)n4cnnc34)cn2)CC1 [Example 134, 4-(5-(5-(((2,3-dihydrobenzofuran-4-yl)methyl)amino)-[1,2,4]triazolo[4,3-c]pyrimidin-8-yl)pyridin-2-yl)piperazine-1-carbaldehyde]"
13,0.0045,"OCc1ccc(-c2cnc(NCc3c(F)ccc4c3CCO4)n3cnnc23)cn1 [Example 234, (5-(5-(((5-fluoro-2,3-dihydrobenzofuran-4-yl)methyl)amino)-[1,2,4]triazolo[4,3-c]pyrimidin-8-yl)pyridin-2-yl)methanol]"
14,0.0048,"CC(c1ccc(-c2cnc(NCc3c(F)ccc4c3CCO4)n3cnnc23)cc1)N1CCCC1 (stereo not shown) [Example 46, N-((5-fluoro-2,3-dihydrobenzofuran-4-yl)methyl)-8-(4-(1-(pyrrolidin-1-yl)ethyl)phenyl)-[1,2,4]triazolo[4,3-c]pyrimidin-5-amine]"
